Results as given in ChEMBL document CHEMBL1921742, “9,10-secosteroids, protein kinase inhibitors from the Chinese gorgonian Astrogorgia sp” (Bioorg Med Chem, 2011).

Experiments:
[1] = biological target: RAC-alpha serine/threonine-protein kinase (Homo sapiens, UniProt P31749); test: Inhibition of recombinant human AKT1 using GSK3 (amino acids 14 to 27) as substrate
[2] = biological target: ALK tyrosine kinase receptor (Homo sapiens, UniProt Q9UM73); test: Inhibition of recombinant human ALK
[3] = biological target: T1, NUAK family SNF1-like kinase 1 (Homo sapiens, UniProt O60285); test: Inhibition of recombinant human ARK5
T1 sequence (O60285 whole entry): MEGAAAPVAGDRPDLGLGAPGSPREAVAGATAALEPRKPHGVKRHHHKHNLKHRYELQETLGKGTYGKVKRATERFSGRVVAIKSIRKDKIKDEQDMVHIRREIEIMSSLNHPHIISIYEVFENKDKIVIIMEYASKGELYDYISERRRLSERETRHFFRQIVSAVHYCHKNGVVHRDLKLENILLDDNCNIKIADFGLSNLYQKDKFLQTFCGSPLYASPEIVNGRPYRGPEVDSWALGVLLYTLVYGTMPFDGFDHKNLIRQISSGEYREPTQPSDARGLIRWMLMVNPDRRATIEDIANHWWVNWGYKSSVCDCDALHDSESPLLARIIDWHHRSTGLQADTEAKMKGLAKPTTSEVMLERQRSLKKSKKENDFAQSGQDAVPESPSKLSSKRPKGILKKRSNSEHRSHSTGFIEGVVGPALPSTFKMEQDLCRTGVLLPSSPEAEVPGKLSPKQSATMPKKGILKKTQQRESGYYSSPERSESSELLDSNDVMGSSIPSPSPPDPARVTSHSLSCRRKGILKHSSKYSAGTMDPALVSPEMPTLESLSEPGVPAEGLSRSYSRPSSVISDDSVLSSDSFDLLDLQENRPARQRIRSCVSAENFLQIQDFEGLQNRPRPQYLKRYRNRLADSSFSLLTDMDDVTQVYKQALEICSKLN

[4] = biological target: Aurora kinase B (Homo sapiens, UniProt Q96GD4); test: Inhibition of recombinant human Aurora-B using tetra(LRRWLSG) as substrate
[5] = biological target: T2, Tyrosine-protein kinase receptor UFO (Homo sapiens, UniProt P30530); test: Inhibition of recombinant human AXL
T2 sequence (P30530 whole entry): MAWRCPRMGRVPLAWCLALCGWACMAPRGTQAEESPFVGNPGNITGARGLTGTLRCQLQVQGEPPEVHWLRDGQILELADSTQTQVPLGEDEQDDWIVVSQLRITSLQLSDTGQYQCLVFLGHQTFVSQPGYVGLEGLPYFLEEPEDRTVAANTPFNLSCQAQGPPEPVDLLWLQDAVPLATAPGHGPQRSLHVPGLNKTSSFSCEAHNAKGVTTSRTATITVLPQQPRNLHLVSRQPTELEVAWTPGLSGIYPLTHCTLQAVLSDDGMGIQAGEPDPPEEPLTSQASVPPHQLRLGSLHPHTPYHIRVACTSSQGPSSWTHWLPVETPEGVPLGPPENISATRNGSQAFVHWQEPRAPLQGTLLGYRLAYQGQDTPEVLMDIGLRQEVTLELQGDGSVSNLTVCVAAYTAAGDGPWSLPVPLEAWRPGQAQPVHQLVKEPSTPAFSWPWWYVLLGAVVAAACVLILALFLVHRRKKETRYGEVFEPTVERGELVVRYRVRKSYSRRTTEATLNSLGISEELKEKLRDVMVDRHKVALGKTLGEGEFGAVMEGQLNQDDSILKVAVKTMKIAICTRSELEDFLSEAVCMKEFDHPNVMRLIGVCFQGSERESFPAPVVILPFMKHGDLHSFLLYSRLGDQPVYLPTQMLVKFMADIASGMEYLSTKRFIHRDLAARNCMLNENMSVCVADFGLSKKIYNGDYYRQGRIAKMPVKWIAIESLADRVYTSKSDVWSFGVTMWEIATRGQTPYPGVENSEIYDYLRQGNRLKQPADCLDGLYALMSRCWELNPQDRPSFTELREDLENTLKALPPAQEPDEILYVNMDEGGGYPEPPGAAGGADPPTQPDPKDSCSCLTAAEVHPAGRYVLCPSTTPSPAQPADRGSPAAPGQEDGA

[6] = biological target: Focal adhesion kinase 1 (Homo sapiens, UniProt Q05397); test: Inhibition of recombinant human FAK using poly(Glu,Tyr)4:1 as substrate
Focal adhesion kinase 1, sequence (Q05397 whole entry): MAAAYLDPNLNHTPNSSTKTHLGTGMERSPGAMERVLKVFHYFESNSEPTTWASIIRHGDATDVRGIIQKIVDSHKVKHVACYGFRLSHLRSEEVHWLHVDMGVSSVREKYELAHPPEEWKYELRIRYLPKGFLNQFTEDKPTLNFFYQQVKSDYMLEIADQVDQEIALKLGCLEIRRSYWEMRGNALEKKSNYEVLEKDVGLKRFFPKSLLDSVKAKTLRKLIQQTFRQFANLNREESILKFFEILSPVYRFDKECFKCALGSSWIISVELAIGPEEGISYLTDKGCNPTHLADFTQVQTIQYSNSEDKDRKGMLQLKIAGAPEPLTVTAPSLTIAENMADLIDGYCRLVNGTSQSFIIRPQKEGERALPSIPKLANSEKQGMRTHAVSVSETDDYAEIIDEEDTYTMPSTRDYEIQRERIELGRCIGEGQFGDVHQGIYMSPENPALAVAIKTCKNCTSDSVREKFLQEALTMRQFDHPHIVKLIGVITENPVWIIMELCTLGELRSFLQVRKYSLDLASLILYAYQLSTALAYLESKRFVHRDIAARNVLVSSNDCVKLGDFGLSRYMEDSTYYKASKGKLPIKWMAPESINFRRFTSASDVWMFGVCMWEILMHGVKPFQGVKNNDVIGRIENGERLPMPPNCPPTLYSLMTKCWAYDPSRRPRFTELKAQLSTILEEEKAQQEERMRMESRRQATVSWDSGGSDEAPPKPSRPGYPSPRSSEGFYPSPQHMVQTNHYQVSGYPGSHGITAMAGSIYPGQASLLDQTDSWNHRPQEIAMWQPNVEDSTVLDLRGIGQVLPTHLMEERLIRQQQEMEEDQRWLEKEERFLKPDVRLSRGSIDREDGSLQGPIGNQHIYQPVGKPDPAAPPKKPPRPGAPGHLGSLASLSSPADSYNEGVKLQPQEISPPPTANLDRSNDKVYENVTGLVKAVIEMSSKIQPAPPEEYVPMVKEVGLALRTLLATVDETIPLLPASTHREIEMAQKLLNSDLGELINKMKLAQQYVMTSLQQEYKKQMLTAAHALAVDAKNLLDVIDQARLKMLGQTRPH

[7] = biological target: Insulin-like growth factor 1 receptor (Homo sapiens, UniProt P08069); test: Inhibition of recombinant human IGF1-R using poly(Glu,Tyr)4:1 as substrate
[8] = biological target: Dual specificity mitogen-activated protein kinase kinase 1 (Homo sapiens, UniProt Q02750); test: Inhibition of wild type human MEK1
[9] = biological target: Hepatocyte growth factor receptor (Homo sapiens, UniProt P08581); test: Inhibition of wild type human MET using poly(Ala,Glu,Lys,Tyr) as substrate
Hepatocyte growth factor receptor, sequence (P08581 whole entry): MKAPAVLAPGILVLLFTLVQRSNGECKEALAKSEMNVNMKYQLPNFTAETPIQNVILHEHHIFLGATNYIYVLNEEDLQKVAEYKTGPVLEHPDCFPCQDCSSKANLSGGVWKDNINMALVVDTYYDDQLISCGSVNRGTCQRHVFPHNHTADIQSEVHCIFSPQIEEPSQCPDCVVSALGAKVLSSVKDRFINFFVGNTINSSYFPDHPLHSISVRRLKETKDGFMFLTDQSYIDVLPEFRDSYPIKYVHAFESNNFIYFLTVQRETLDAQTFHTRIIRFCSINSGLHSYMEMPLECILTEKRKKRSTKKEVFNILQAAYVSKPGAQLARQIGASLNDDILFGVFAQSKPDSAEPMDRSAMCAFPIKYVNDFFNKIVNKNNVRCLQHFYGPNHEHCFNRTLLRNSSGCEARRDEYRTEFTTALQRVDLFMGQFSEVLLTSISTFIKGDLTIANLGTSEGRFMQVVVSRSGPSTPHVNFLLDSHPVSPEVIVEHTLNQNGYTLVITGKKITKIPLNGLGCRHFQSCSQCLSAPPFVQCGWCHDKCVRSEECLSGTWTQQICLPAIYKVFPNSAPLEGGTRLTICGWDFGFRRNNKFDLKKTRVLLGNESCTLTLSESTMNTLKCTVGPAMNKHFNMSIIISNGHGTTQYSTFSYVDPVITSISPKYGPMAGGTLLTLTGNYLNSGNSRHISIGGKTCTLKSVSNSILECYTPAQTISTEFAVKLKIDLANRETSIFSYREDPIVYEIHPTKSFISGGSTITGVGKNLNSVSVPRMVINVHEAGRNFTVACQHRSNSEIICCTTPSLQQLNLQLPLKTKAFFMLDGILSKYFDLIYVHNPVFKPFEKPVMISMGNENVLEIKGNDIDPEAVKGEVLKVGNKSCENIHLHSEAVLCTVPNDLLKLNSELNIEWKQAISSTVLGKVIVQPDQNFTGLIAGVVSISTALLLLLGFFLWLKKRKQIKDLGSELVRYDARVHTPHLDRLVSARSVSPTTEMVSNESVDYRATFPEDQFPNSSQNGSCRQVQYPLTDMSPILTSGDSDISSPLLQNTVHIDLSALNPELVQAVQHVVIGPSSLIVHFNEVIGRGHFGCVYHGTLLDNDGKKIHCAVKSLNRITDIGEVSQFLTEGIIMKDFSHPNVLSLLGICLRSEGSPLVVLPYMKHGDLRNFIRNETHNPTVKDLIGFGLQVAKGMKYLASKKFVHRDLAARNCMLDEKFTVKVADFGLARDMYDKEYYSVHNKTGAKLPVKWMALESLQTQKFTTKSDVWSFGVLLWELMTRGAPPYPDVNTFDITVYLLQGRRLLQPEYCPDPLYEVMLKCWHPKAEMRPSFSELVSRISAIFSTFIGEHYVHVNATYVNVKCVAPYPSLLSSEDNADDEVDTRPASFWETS

[10] = biological target: T3, Serine/threonine-protein kinase Nek2 (Homo sapiens, UniProt P51955); test: Inhibition of recombinant human NEK2
T3 sequence (P51955 whole entry): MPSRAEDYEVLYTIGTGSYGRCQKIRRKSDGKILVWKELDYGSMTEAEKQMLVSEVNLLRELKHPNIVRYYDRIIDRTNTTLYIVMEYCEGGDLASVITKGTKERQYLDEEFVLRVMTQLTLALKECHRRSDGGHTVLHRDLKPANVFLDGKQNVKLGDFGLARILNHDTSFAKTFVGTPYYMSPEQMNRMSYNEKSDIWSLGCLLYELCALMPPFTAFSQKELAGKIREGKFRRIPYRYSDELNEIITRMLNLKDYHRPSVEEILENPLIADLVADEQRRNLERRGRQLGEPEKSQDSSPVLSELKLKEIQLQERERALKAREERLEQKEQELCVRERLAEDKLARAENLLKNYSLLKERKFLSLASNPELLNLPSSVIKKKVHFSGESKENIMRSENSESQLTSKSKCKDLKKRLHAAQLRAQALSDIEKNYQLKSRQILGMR

[11] = biological target: Serine/threonine-protein kinase Nek6 (Homo sapiens, UniProt Q9HC98); test: Inhibition of recombinant human NEK6
Serine/threonine-protein kinase Nek6, sequence (Q9HC98 whole entry): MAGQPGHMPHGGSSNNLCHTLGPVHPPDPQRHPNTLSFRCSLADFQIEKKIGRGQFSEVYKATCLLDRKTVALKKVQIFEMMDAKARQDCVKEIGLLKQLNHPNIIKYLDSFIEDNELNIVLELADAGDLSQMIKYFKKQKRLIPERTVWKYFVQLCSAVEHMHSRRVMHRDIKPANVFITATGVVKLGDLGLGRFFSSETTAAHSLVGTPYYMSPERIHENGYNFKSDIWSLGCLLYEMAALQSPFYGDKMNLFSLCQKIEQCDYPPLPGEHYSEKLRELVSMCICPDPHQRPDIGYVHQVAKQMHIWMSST

[12] = biological target: Serine/threonine-protein kinase pim-1 (Homo sapiens, UniProt P11309); test: Inhibition of recombinant human PIM1
Serine/threonine-protein kinase pim-1, sequence (P11309 whole entry): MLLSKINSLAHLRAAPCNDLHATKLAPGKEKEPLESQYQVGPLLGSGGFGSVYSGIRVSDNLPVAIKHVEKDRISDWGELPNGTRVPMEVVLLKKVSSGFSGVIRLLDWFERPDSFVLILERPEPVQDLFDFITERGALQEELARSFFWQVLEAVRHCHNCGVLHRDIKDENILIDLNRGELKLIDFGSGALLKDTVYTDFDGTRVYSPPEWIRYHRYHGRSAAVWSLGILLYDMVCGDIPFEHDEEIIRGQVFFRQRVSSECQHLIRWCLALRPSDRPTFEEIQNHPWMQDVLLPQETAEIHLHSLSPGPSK

[13] = biological target: Serine/threonine-protein kinase PLK1 (Homo sapiens, UniProt P53350); test: Inhibition of recombinant human PLK1 using casein as substrate
Serine/threonine-protein kinase PLK1, sequence (P53350 whole entry): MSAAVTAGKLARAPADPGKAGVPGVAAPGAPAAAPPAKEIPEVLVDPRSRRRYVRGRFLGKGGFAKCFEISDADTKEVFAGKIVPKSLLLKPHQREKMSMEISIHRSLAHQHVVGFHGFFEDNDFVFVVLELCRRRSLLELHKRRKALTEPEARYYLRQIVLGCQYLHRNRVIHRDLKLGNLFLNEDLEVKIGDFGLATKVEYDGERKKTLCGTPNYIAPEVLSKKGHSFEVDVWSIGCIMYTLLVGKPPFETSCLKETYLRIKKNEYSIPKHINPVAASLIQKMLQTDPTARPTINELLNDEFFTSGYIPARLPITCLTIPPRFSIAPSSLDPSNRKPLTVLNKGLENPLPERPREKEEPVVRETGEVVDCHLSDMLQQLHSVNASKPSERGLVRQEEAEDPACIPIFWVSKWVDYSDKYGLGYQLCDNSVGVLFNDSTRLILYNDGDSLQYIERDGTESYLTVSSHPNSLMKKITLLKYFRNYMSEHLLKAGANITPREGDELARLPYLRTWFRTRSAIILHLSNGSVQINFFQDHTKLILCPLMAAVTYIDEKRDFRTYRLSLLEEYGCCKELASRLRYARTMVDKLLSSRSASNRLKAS

[14] = biological target: Serine/threonine-protein kinase N1 (Homo sapiens, UniProt Q16512); test: Inhibition of recombinant human PRK1
[15] = biological target: Proto-oncogene tyrosine-protein kinase Src (Homo sapiens, UniProt P12931); test: Inhibition of recombinant human SRC using poly(Glu,Tyr)4:1 as substrate
[16] = biological target: Vascular endothelial growth factor receptor 2 (Homo sapiens, UniProt P35968); test: Inhibition of recombinant human VEGF-R2 using poly(Glu,Tyr)4:1 as substrate
Vascular endothelial growth factor receptor 2, sequence (P35968 whole entry): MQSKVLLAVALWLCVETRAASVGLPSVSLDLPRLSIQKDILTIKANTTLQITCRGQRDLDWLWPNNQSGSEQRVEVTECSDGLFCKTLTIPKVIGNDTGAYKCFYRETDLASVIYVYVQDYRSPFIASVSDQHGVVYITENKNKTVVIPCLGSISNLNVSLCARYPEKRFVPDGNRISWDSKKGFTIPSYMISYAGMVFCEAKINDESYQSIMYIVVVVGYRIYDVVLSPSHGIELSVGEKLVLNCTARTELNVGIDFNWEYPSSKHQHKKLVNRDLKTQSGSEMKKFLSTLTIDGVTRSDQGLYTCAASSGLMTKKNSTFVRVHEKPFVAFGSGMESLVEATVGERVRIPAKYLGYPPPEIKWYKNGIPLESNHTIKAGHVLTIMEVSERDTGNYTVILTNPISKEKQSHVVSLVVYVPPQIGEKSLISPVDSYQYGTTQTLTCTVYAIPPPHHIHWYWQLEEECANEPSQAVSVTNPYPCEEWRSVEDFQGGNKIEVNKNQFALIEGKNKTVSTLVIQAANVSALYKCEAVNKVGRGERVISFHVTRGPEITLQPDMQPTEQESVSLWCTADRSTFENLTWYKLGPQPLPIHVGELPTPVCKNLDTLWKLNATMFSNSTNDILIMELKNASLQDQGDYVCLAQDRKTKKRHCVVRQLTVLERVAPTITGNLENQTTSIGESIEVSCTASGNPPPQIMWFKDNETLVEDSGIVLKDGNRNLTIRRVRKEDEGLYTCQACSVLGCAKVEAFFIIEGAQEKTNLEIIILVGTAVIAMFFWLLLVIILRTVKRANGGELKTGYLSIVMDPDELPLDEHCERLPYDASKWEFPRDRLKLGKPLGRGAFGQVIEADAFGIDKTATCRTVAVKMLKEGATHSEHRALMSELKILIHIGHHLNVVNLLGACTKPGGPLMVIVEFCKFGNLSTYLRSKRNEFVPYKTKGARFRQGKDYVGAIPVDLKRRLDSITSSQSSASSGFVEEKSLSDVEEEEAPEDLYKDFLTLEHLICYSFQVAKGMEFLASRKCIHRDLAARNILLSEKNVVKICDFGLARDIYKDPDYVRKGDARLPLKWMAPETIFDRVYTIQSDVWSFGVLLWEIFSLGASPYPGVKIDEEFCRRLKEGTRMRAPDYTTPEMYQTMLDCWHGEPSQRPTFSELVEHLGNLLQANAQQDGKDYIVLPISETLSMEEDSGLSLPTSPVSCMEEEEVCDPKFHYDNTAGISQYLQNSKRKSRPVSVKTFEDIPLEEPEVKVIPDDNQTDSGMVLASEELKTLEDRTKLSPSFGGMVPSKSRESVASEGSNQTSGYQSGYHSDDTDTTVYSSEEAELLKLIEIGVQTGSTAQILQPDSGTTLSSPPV

IC50 [1]	IC50 [2]	IC50 [3]	IC50 [4]	IC50 [5]	IC50 [6]	IC50 [7]	IC50 [8]	IC50 [9]	IC50 [10]	IC50 [11]	IC50 [12]	IC50 [13]	IC50 [14]	IC50 [15]	IC50 [16]	SMILES
> 100 µM	4.16 µM	> 100 µM	> 100 µM	14.7 µM	9.92 µM	2.42 µM	> 100 µM	47.6 µM	> 100 µM	> 100 µM	> 100 µM	> 100 µM	> 100 µM	2.24 µM	4.6 µM	Cc1ccc(O)cc1CC[C@@H]1C(=O)CC[C@]2(C)[C@@H]([C@H](C)/C=C/CC(C)C)CC[C@@H]12 [CALICOFEROL A]
> 100 µM	7.55 µM	> 100 µM	25.1 µM	16.9 µM	13.2 µM	2.77 µM	48.9 µM	78 µM	> 100 µM	> 100 µM	> 100 µM	> 100 µM	> 100 µM	1.91 µM	4.35 µM	Cc1ccc(O)cc1CC[C@@H]1[C@H](O)CC[C@]2(C)[C@@H]([C@H](C)CCCC(C)C)CC[C@@H]12 [ASTROGORGIADIOL]
> 100 µM	9.33 µM	> 100 µM	38.1 µM	21.9 µM	16.9 µM	3.16 µM	> 100 µM	–	> 100 µM	> 100 µM	> 100 µM	> 100 µM	> 100 µM	2.4 µM	4.95 µM	Cc1ccc(O)cc1CC[C@@H]1[C@@H](O)CC[C@]2(C)[C@@H]([C@H](C)/C=C/CC(C)C)CC[C@@H]12 (relative stereo)
> 100 µM	4.73 µM	> 100 µM	> 100 µM	32.6 µM	9.63 µM	2.46 µM	> 100 µM	–	> 100 µM	> 100 µM	> 100 µM	> 100 µM	> 100 µM	2.17 µM	6.01 µM	Cc1ccc(O)cc1CC[C@@H]1C(=O)CC[C@]2(C)[C@@H]([C@H](C)CCCC(C)C)CC[C@@H]12 [CALICOFEROL E]
> 100 µM	> 100 µM	> 100 µM	> 100 µM	> 100 µM	> 100 µM	> 100 µM	> 100 µM	> 100 µM	> 100 µM	> 100 µM	> 100 µM	> 100 µM	> 100 µM	> 100 µM	> 100 µM	C=C(CC[C@@H](C)[C@H]1CC[C@H]2[C@H](CCc3cc(O)ccc3C)[C@H](O)CC[C@]12C)C(C)C [CALICOFEROL C]
> 100 µM	4.36 µM	> 100 µM	> 100 µM	20.2 µM	10.7 µM	2.3 µM	> 100 µM	27.5 µM	> 100 µM	> 100 µM	> 100 µM	100 µM	> 100 µM	1.48 µM	4.85 µM	C=C(CC[C@@H](C)[C@H]1CC[C@H]2[C@H](CCc3cc(O)ccc3C)C(=O)CC[C@]12C)C(C)C
> 100 µM	> 100 µM	> 100 µM	> 100 µM	> 100 µM	> 100 µM	> 100 µM	> 100 µM	> 100 µM	> 100 µM	> 100 µM	> 100 µM	> 100 µM	> 100 µM	> 100 µM	> 100 µM	Cc1ccc(O)cc1CC[C@@H]1[C@H](O)CC[C@]2(C)[C@@H]([C@H](C)CCCC(C)C)[C@@H](O)C[C@@H]12 [CALICOFEROL B]
> 100 µM	> 100 µM	> 100 µM	> 100 µM	> 100 µM	> 100 µM	> 100 µM	> 100 µM	> 100 µM	> 100 µM	> 100 µM	> 100 µM	> 100 µM	> 100 µM	> 100 µM	> 100 µM	Cc1ccc(O)cc1CC[C@@H]1C(=O)CC[C@]2(C)[C@@H]([C@H](C)CCCC(C)C)[C@@H](O)C[C@@H]12 [CALICOFEROL I]
